Among the data in patent publication US5859042A, “Five membered heterocyclic compounds” (Ono Pharmaceutical Co., Ltd., priority 1997, dated 1999) are IC50 values, retold here.

One assay deals with T1, 5α-reductase (Homo sapiens, UniProt P31213).
T1 construct: Frozen human prostates were thawed on ice and minced with scissors into small pieces; from tissue; host or cells: human prostate (frozen), washed 140,000×g membrane pellet
T1 sequence (P31213 1-254): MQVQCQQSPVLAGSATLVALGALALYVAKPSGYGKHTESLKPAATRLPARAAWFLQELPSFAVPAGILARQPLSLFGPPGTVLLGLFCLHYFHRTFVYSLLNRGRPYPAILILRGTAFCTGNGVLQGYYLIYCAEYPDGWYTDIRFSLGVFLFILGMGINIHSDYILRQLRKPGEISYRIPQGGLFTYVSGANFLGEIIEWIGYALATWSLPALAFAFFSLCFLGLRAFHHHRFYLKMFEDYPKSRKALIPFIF
Description: inhibitory activity on 5α-reductase from human prostates (conversion of 14C-testosterone to DHT). It is filed as biochemical. The conditions noted are these: human prostatic 5α-reductase, pH 5.0, 1 μM 14C-testosterone, 1 mM NADPH, 30 min at 37° C.; Table 1. The protocol: (1) Preparation of 5α-reductase from human prostates
Frozen human prostates were thawed on ice and minced with scissors into small pieces (~1 mm^3). The minced tissue was homogenized in 3 tissue volumes of ice cold medium A (20 mM potassium phosphate, pH 6.5, containing 0.32M sucrose, 1 mM dithiothreitol, 50 μM NADPH, 1 mM EDTA), first with a Brinkmann Polytron and then with a Dounce homogenizer. The homogenate was filtered through gauze and the filtrate was centrifuged at 140,000×g at 4° C. for 60 min. The resulting pellet was washed with 3 tissue volumes of medium A. The washed pellet was suspended (5-10 mg protein/ml) in 20 mM potassium phosphate, pH 6.5, containing 20% glycerol, 50 μM NADPH and 1 mM dithiothreitol. An appropriate aliquot of this suspension was used as the source of 5α-reductase.
5α-reductase activity was determined by following the conversion of testosterone to 5α-dihydrotestosterone (DHT). In brief, buffer (100 mM Tris-citrate, pH5.0), 1 mM NADPH and human prostatic 5α-reductase(0.4-1 mg protein) were placed in test tubes. After addition of test compounds (dissolved in 5 μl in DMSO or EtOH) or solvents to the tubes, the solutions were preincubated at room temperature for 10 min. The reactions were initiated by addition of 1 μM ^14 C-testosterone to a final volume of 0.5 ml. Following 30 min incubation at 37° C., the reactions were stopped by addition of 5 ml dichloromethane. After centrifugation at 1000 rpm for 5 min, the organic phase (bottom) was collected and the volume reduced to ~100 μl in a 42° C. water bath. The solutions were applied to silica plates and the plates were developed in chloroform/ethyl acetate (3:1) at room temperature. The radioactivity profiles were determined by a BIOSCAN imaging scanner. The silica in sections identified by BIOSCAN and counted in a scintillation counter. Enzyme activity was calculated from the percent of recovered radio label converted to the product DHT.
Turning to `CCc1ccc(-c2ccc(C(=O)c3ccc(CC(=O)O)n3C)cc2)cc1` [Example 2], the IC50 turned out to be 0.024 µM.

`Cn1c(CC(=O)O)ccc1C(=O)c1ccc(C2CCCCC2)cc1` [Example 3(1)] came in with an IC50 of 0.02 µM.

Regarding `Cn1c(CC(=O)O)ccc1C(=O)c1ccc(-c2ccccc2)cc1` [Example 3(2)], the IC50 came to 0.019 µM.

For the molecule `Cn1c(CC(=O)O)ccc1C(=O)c1ccc(C(=O)c2ccccc2)cc1` [Example 3(5)], the IC50 came out at 0.21 µM.

Take `Cn1c(CC(=O)O)ccc1C(=O)c1ccc(OCc2ccccc2)cc1` [Example 3(8)]: the 50% inhibitory concentration (IC50) stood at 0.024 µM.

Take `Cc1cc(OCc2ccccc2)ccc1C(=O)c1ccc(CC(=O)O)n1C` [Example 3(16)]: the IC50 is 0.17 µM.

Turning to `O=C(O)Cc1ccc(C(=O)c2ccc(-c3ccccc3)cc2)s1` [Example 3(18)], the IC50 stood at 0.45 µM.

The molecule `Cn1c(CC(=O)O)ccc1C(=O)c1ccc2c(c1)C(=O)c1ccccc1-2` [Example 3(20)] registered an IC50 of 0.13 µM.

With `Cn1c(CC(=O)O)ccc1C(=O)CCCCc1ccccc1` [Example 3(22)], the concentration for half-maximal inhibition (IC50) came out at 0.84 µM.

Take `Cn1c(CC(=O)O)ccc1C(=O)c1ccc(CSc2ccccc2)cc1` [Example 3(41)]: the IC50 was determined as 0.098 µM.

As for `Cn1c(CC(=O)O)ccc1C(=O)c1ccc(/C=C/c2ccccc2)cc1` [Example 3(47)], the IC50 was 0.056 µM.

Molecule `Cn1c(CC(=O)O)ccc1C(=O)c1ccc(-n2cccc2)cc1` [Example 3(50)] showed an IC50 of 0.16 µM.

Regarding `Cn1c(CC(=O)O)ccc1C(=O)c1ccc(-c2cccs2)cc1` [Example 3(54)], the IC50 came out at 0.023 µM.

`Cn1c(CC(=O)O)ccc1C(=O)c1ccc(-c2ccc(Br)s2)cc1` [Example 3(55)] yielded an IC50 of 0.024 µM.

As for `Cn1c(CC(=O)O)ccc1C(=O)c1ccc(-c2ccc(F)cc2)cc1` [Example 3(62)], half-maximal inhibition (IC50) required 0.041 µM.

In turn, `Cn1c(C(=O)O)ccc1C(=O)c1ccc(-c2ccccc2)cc1` [Example 3(70)] returned an IC50 of 0.17 µM.

Take `Cn1c(CC(=O)O)ccc1C(=O)C1CCC(c2ccccc2)CC1` (stereo not drawn) [Example 3(77)]: the IC50 was determined as 0.25 µM.

Consider `Cn1c(CC(=O)O)ccc1C(=O)c1ccc(-c2cc(Cl)cc(Cl)c2)cc1` [Example 3(82)], for which it took 0.63 µM to reach half-maximal inhibition (IC50).

The molecule `Cc1cc(C(=O)c2ccc(CC(=O)O)n2C)ccc1-c1ccccc1` [Example 3(83)] returned an IC50 of 0.092 µM.

Still in this assay, the particulars now being: human prostatic 5α-reductase, pH 5.0, 1 μM 14C-testosterone, 1 mM NADPH, 30 min at 37° C.; Table 2.
Molecule `CCCCCCOc1ccc(C(=O)c2ccc(CC(=O)O)n2C)cc1` [hexyloxy] had an IC50 of 0.17 µM.

The molecule `Cn1c(CC(=O)O)ccc1C(=O)c1ccc(I)cc1` [iodo] registered an IC50 of 0.44 µM.

Turning to `CC(C)Cc1ccc(C(=O)c2ccc(CC(=O)O)n2C)cc1` [isobutyl], 0.074 µM corresponded to half-maximal inhibition (IC50).

Take `Cc1ccc(C(=O)c2ccc(CC(=O)O)n2C)cc1` [methyl]: the IC50 is 8 µM.

Molecule `Cn1c(CC(=O)O)ccc1C(=O)c1ccc(C(C)(C)C)cc1` [t-butyl] showed an IC50 of 0.4 µM.
